Data on 26 molecules can be found in US20230340012A1, “NATURAL AND SYNTHETIC COMPOUNDS FOR TREATING CANCER AND OTHER DISEASES” (PACIFIC ARROW LIMITED, priority 2009, published 2023).

For the series, the system named is cancer cells. The series is described as follows: MTT cytotoxic assay of esterification products (Cytotoxicity activity). It counts as cell-based, human. From the text:
The peaks, fractions and compounds are selected according to the activities of times studies and the changes of peaks. Selecting the HPLC fractions for isolation is according to the cytotoxic activity of the reaction product obtained at a specific time. The compounds having strong to weak activities are selected and isolated. Selecting the HPLC fractions for isolation may be according to the cytotoxic activity of times studies and the change of peaks. The anti-cancer activities are the MTT studies of bone (U2OS), lung (H460), bladder (HTB-9), ovary (ES2), colon (HCT116), pancreas (Capan), ovary(OVCAR3), prostate (DU145), skin (SK-Mel-5), mouth (KB), kidney (A498), breast (MCF-7), liver (HepG2), brain (T98G), leukemia (K562), cervix (HeLa).
Esterification of compound (A), (B), (C), (D1), (D2), (E), (F), (G), (H1), (H2), E4A, E4A2Y, (P1), P(2), terpene, isoprene, triterpenes, hydroxylated triterpenes, with acyl halide, wherein the halide comprise chloride, bromide, fluoride and iodide, wherein the acyl halide comprise acyl chloride, wherein acyl chloride comprise tigloyl chloride, angeloyl chloride, acetyl chloride, crotonoyl chloride, 3,3-Dimethylacryloyl chloride, senecioyl chloride, cinnamoyl chloride, pentenoyl chloride, hexanoyl chloride, benzoyl chloride, ethylbutyryl chloride, propionyl chloride, 2-propenoyl chloride, isobutyryl chloride, butyryl chloride, (2E)-2-pentenoyl chloride, 4-Pentenoyl chloride, 5-hexenoyl chloride, heptanoyl chloride, octanoyl chloride, nonanoyl chloride, decanoyl chloride, Lauroyl chloride, myristoyl chloride, oleoyl chloride. The compounds vary in composition when the time or temperature of the reaction is changed. The peaks, fractions and compounds are selected according to the activities of times studies and the changes of peaks. The compounds having strong to weak activities are selected and isolated. The anti-cancer activities (Cytotoxic Assay) are the MTT studies of bone (U2OS), lung (H460), bladder(HTB-9), ovary (ES2), colon (HCT116), pancreas (Capan), ovary(OVCAR3), prostate (DU145), skin (SK-Mel-5), mouth (KB), kidney (A498), breast (MCF-7), liver (HepG2), brain (T98G), leukemia (K562), cervix (HeLa). The active esterification products are purified with HPLC. The reaction product of mixtures and individual compounds are tested with MTT Cytotoxic Assay. Details of method are in Experiment 3 of the present application. A second esterification of compound can be selected from the above experiment results to produce new active compounds. A partial esterification compound is selected from the above experiments to perform a second or repeated with a third esterification with different acyl chloride in order to produce new active compounds with the experiments in the present application.
Method: 40 mg of triterpene core (fraction IV) was dissolved in 1 ml pyridine in a 50 ml tube. Reaction is started by adding 0.2 ml of acyl chloride (Tigloyl chloride, angeloyl chloride, Acetyl chloride, Crotonoyl chloride, 3,3-Dimethylacryloyl chloride(senecioyl chloride), Cinnamoyl chloride, Pentenoyl chloride, Hexanoyl chloride, benzoyl chloride or Ethylbutyryl chloride). The mixture is stirred for 5 sec, 1 min, 2 min, 5 min, 10 min, 30 min, 1 hr, 2 hr, 18 hr, 2 days or 3 days at 0° C., 25° C. or 75° C. temperature. At the end of reaction, 5 ml of 2N HCl or 1 M NaHCO3 is added to the reaction mixture. The solution is then extracted 3 times with 10 ml of ethyl acetate which is then evaporated under vacuum and at 45C and lyophilization. The reaction product is dissolved in 80% acetonitrile - 0.005% Trifluoroacetic acid or DMSO; and was separated with HPLC. Selecting the HPLC fractions for isolation is according to the cytotoxic activity of the reaction product obtained at a specific reaction time. The active esterification products are purified with HPLC. The reaction product of mixtures and individual compounds are tested with MTT cytotoxic assay. Structures are determined with NMR. […]
On the technique in general: Formazan colour is commonly taken as a measure of viable cells.

Setting [1] is: E4A esterified with Acetyl chloride (Acy = Acetyl), compounds isolated with HPLC.
Where [2] appears, read: esterification products isolated with HPLC, graded strong / moderate / weak.
Where [3] appears, read: MTT cytotoxic assay, isolated esterification products of E4A.
[4] abbreviates: E4A esterified with Crotonoyl chloride (Cro = Crotonoyl), compounds isolated with HPLC.
Where [5] appears, read: E4A esterified with 2-propenoyl chloride (Ppe = Propenoyl), compounds isolated with HPLC.
[6] abbreviates: E4A esterified with Propionyl chloride (Ppi = Propionyl), compounds isolated with HPLC.
The mark [7] stands for this setting: E4A esterified with benzoyl chloride (Ben = benzoyl), compounds isolated with HPLC.
The mark [8] stands for this setting: esterification products of core compound E4A with (2E)-2-pentenoyl chloride (2pe = 2-pentenoyl).
[9] abbreviates: esterification products of core compound E4A with Butyryl chloride (But = Butyryl).
[10] abbreviates: esterification products of core compound E4A with Decanoyl chloride (Dec = Decanoyl).
Where [11] appears, read: esterification products of core compound E4A with Isobutyryl chloride (Iso = Isobutyryl).
The mark [12] stands for this setting: esterification products of core compound E4A with Myristoyl chloride (Myr = Myristoyl).
[13] abbreviates: esterification products of core compound E4A with Octanoyl chloride (Oct = Octanoyl).

With `CC(=O)OCC1(C)C(OC(C)=O)CCC2(C)C1CCC1(C)C2CC=C2C3CC(C)(C)C(O)C(O)C3(CO)C(O)CC21C` (centres unmarked) [Compound H31], under setting [1], the Cytotoxicity activity entry is “moderate”.

For `CC=C(C)C(=O)OCC1(C)C(OC(=O)CCCCC)CCC2(C)C1CCC1(C)C2CC=C2C3CC(C)(C)C(O)C(OC(=O)CCCCC)C3(COC(=O)C(C)=CC)C(O)CC21C` (centres unmarked) [Tig—R—Hex—6], the Cytotoxicity activity result under setting [2] is reported as “weak”.

With `CC=C(C)C(=O)OCC1(C)C(OC(=O)C(C)=CC)CCC2(C)C1CCC1(C)C2CC=C2C3CC(C)(C)C(O)C(OC(=O)C(C)=CC)C3(COC(=O)C(C)=CC)C(O)CC21C` (centres unmarked) [Compound A14], the Cytotoxicity activity entry under setting [3] is on record as “weak”.

For `CCC(CC)C(=O)OCC1(C)C(O)CCC2(C)C1CCC1(C)C2CC=C2C3CC(C)(C)C(OC(=O)C(CC)CC)C(OC(=O)C(CC)CC)C3(COC(=O)C(CC)CC)C(O)CC21C` (centres unmarked) [Compound E8], under setting [3], the Cytotoxicity activity entry was “weak”.

Consider `CC=CC(=O)OCC12C(O)CC3(C)C(=CCC4C5(C)CCC(O)C(C)(COC(=O)C(C)=CC)C5CCC43C)C1CC(C)(C)C(O)C2OC(=O)C=CC` (centres unmarked) [Tig—Cro—3], for which the Cytotoxicity activity entry under setting [2] is on record as “moderate”. As to `CC=C(C)C(=O)OCC1(C)C(O)CCC2(C)C1CCC1(C)C2CC=C2C3CC(C)(C)C(OC(C)=O)C(OC(C)=O)C3(COC(=O)C(C)=CC)C(O)CC21C` (centres unmarked) [Tig—R—Acy—1], the Cytotoxicity activity entry under setting [2] is listed as “weak”.

As for `CC=C(C)C(=O)OCC1(C)C(OC(=O)C=Cc2ccccc2)CCC2(C)C1CCC1(C)C2CC=C2C3CC(C)(C)C(OC(=O)C=Cc4ccccc4)C(O)C3(COC(=O)C(C)=CC)C(O)CC21C` (centres unmarked) [Tig—R—Cin—5], the Cytotoxicity activity entry under setting [2] was “weak”. In the case of `CC=CC(=O)OCC12C(O)CC3(C)C(=CCC4C5(C)CCC(O)C(C)(CO)C5CCC43C)C1CC(C)(C)C(OC(=O)C=CC)C2O` (centres unmarked) [Compound I25], the Cytotoxicity activity entry under setting [4] is reported as “moderate”. Regarding `CC(C)=CC(=O)OCC1(C)C(O)CCC2(C)C1CCC1(C)C2CC=C2C3CC(C)(C)C(OC(=O)C=C(C)C)C(OC(=O)C=C(C)C)C3(COC(=O)C=C(C)C)C(O)CC21C` (centres unmarked) [Compound B8], the Cytotoxicity activity result under setting [3] is “weak”. On to `CC(=O)OCC1(C)C(OC(C)=O)CCC2(C)C1CCC1(C)C2CC=C2C3CC(C)(C)C(OC(C)=O)C(O)C3(COC(C)=O)C(OC(C)=O)CC21C` (centres unmarked) [Compound H17], for which the Cytotoxicity activity result under setting [1] was “weak”. In the case of `CC=C(C)C(=O)OCC1(C)C(OC(=O)C(CC)CC)CCC2(C)C1CCC1(C)C2CC=C2C3CC(C)(C)C(O)C(O)C3(COC(=O)C(C)=CC)C(O)CC21C` (centres unmarked) [Tig—R—Eth—4], the Cytotoxicity activity result under setting [2] was “moderate”.

As for `C=CCCC(=O)OCC1(C)C(OC(=O)CCC=C)CCC2(C)C1CCC1(C)C2CC=C2C3CC(C)(C)C(OC(=O)CCC=C)C(OC(=O)CCC=C)C3(COC(=O)CCC=C)C(O)CC21C` (centres unmarked) [Compound C15], the Cytotoxicity activity entry under setting [3] was “weak”. On the same count and under the same terms, the entry for `CC=C(C)C(=O)OCC12C(OC(=O)C(C)=CC)CC3(C)C(=CCC4C5(C)CCC(O)C(C)(CO)C5CCC43C)C1CC(C)(C)C(O)C2O` (centres unmarked) [Compound A28] is “moderate”. On the same count and under the same terms, next, `CC=C(C)C(=O)OCC1(C)C(O)CCC2(C)C1CCC1(C)C2CC=C2C3CC(C)(C)C(OC(=O)C(C)=CC)C(OC(=O)C(C)=CC)C3(CO)C(O)CC21C` (centres unmarked) [Compound A21]: “moderate”; `CCC(CC)C(=O)OCC12C(OC(=O)C(CC)CC)CC3(C)C(=CCC4C5(C)CCC(O)C(C)(CO)C5CCC43C)C1CC(C)(C)C(O)C2O` (centres unmarked) [Compound E28]: “moderate”. In the case of `CC1(C)CC2C3=CCC4C5(C)CCC(O)C(C)(COC(=O)c6ccccc6)C5CCC4(C)C3(C)CC(O)C2(CO)C(OC(=O)c2ccccc2)C1OC(=O)c1ccccc1` (centres unmarked) [Compound K21], the Cytotoxicity activity entry under setting [5] is listed as “moderate”; the Cytotoxicity activity entry under setting [6] is on record as “moderate”; the Cytotoxicity activity result under setting [7] is “moderate”; the Cytotoxicity activity result under setting [8] is given as “moderate”; the Cytotoxicity activity entry under setting [9] is reported as “moderate”; the Cytotoxicity activity entry under setting [10] is “moderate”. In addition, the Cytotoxicity activity entry under setting [11] is reported as “moderate”, the Cytotoxicity activity result under setting [12] was “moderate” and the Cytotoxicity activity entry under setting [13] is reported as “moderate”. For the molecule `CCC(CC)C(=O)OCC1(C)C(OC(=O)C(CC)CC)CCC2(C)C1CCC1(C)C2CC=C2C3CC(C)(C)C(O)C(O)C3(COC(=O)C(CC)CC)C(OC(=O)C(CC)CC)CC21C` (centres unmarked) [Compound E10], the Cytotoxicity activity entry under setting [3] was “weak”. Same read-out and setting: next, `CCC(CC)C(=O)OCC1(C)C(OC(=O)C(CC)CC)CCC2(C)C1CCC1(C)C2CC=C2C3CC(C)(C)C(O)C(O)C3(COC(=O)C(CC)CC)C(O)CC21C` (centres unmarked) [Compound E6]: “moderate”. For the molecule `CC=CC(=O)OCC1(C)C(O)CCC2(C)C1CCC1(C)C2CC=C2C3CC(C)(C)C(OC(=O)C=CC)C(O)C3(CO)C(O)CC21C` (centres unmarked) [Compound I29], under setting [4], the Cytotoxicity activity entry is listed as “moderate”. Same read-out and setting: next, `CC=CC(=O)OCC1(C)C(O)CCC2(C)C1CCC1(C)C2CC=C2C3CC(C)(C)C(O)C(O)C3(COC(=O)C=CC)C(OC(=O)C=CC)CC21C` (centres unmarked) [Compound I7]: “moderate”. `CC1(C)CC2C3=CCC4C5(C)CCC(OC(=O)c6ccccc6)C(C)(COC(=O)c6ccccc6)C5CCC4(C)C3(C)CC(OC(=O)c3ccccc3)C2(COC(=O)c2ccccc2)C(OC(=O)c2ccccc2)C1O` (centres unmarked) [Compound K18]: the Cytotoxicity activity entry under setting [5] is listed as “weak”; the Cytotoxicity activity result under setting [6] is on record as “weak”; the Cytotoxicity activity result under setting [7] was “weak”; the Cytotoxicity activity result under setting [8] is listed as “weak”; the Cytotoxicity activity entry under setting [9] is “weak”; the Cytotoxicity activity result under setting [10] was “weak”. The Cytotoxicity activity result by setting is: under setting [11], “weak”; under setting [12], “weak”; under setting [13], “weak”. Regarding `CC=CC(=O)OC1C(O)C(C)(C)CC2C3=CCC4C5(C)CCC(O)C(C)(COC(=O)C(C)=CC)C5CCC4(C)C3(C)CC(O)C21CO` (centres unmarked) [Tig—Cro—6], under setting [2], the Cytotoxicity activity result is “moderate”.

`CC1(C)CC2C3=CCC4C5(C)CCC(O)C(C)(COC(=O)c6ccccc6)C5CCC4(C)C3(C)CC(OC(=O)c3ccccc3)C2(CO)C(O)C1O` (centres unmarked) [Compound K32]: the Cytotoxicity activity entry under setting [5] is reported as “moderate”; the Cytotoxicity activity entry under setting [6] was “moderate”; the Cytotoxicity activity entry under setting [7] is “moderate”; the Cytotoxicity activity entry under setting [8] is “moderate”; the Cytotoxicity activity entry under setting [9] was “moderate”; the Cytotoxicity activity result under setting [10] is listed as “moderate”. The Cytotoxicity activity result under setting [11] is given as “moderate”, the Cytotoxicity activity entry under setting [12] was “moderate” and the Cytotoxicity activity entry under setting [13] is “moderate”.

Turning to `CC=C(C)C(=O)OCC1(C)C(O)CCC2(C)C1CCC1(C)C2CC=C2C3CC(C)(C)C(OC(=O)C=C(C)C)C(OC(=O)C=C(C)C)C3(COC(=O)C(C)=CC)C(O)CC21C` (centres unmarked) [Tig—R—Sen—1], the Cytotoxicity activity result under setting [2] was “weak”. The same measure, in the same setting: next, `CC=C(C)C(=O)OCC1(C)C(O)CCC2(C)C1CCC1(C)C2CC=C2C3CC(C)(C)C(OC(=O)C(C)=CC)C(O)C3(COC(=O)C(C)=CC)C(O)CC21C` (centres unmarked) [Tig—Ang—2]: “moderate”. Turning to `CC=C(C)C(=O)OCC1(C)C(OC(=O)CCCCC)CCC2(C)C1CCC1(C)C2CC=C2C3CC(C)(C)C(O)C(O)C3(COC(=O)C(C)=CC)C(O)CC21C` (centres unmarked) [Tig—R—Hex—4], under setting [2], the Cytotoxicity activity result was “moderate”.
